pIC50: −log10 of the molar value.

Assay [1] concerns the target hGYS1 enzyme (recombinant hGYS1/GN1 protein) (Homo sapiens (Human), UniProt P13807). Nature of the assay: GYS1 coupled enzyme assay (PK/LDH). In kind it is biochemical. The conditions noted are these: hGYS1/GN1 50 nM, UDP-Glucose 0.8 mM, G6P 1 mM; geometric mean of at least 2 runs.
Assay [2] addresses hGYS2 enzyme (recombinant hGYS2/GN1 protein) (Homo sapiens (Human), UniProt P54840). Nature of the assay: GYS2 coupled enzyme assay (PK/LDH). In kind it is biochemical. The note with it: geometric mean of at least 2 assay runs on separate days, read-out: Avg_IC50. An outline of the steps: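 IC50 came from Hill fits of duplicate percent inhibition, based on control-normalized slopes of 340 nm NADH decline read each minute for 10 min. The reaction held recombinant hGYS2/GN1 (200 nM) with glycogen, UDP-glucose, G6P and PEP, plus PK/LDH coupling at pH 7.5 and 2.5% DMSO.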

hGYS1 enzyme (recombinant hGYS1/GN1 protein), sequence (P13807 whole entry): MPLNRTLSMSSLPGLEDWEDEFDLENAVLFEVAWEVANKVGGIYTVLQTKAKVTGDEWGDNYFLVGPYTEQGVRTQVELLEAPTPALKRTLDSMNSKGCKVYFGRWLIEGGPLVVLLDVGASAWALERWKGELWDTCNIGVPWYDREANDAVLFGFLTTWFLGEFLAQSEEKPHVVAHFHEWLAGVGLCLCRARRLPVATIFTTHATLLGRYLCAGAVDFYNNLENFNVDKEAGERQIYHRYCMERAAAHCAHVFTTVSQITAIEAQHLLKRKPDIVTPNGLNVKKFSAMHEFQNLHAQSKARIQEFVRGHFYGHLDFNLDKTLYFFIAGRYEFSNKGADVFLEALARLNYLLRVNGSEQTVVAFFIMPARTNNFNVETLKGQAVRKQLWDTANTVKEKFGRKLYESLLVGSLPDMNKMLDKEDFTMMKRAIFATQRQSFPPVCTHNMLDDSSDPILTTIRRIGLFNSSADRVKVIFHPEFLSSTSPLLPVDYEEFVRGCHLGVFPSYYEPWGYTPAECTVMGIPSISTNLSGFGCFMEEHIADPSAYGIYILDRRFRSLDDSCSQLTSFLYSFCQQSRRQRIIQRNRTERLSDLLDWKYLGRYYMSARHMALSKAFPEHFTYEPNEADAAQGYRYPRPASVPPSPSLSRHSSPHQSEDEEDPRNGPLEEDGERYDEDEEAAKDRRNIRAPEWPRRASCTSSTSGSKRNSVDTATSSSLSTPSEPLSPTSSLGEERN
hGYS1 enzyme (recombinant hGYS1/GN1 protein), sequence (P46976 whole entry partner): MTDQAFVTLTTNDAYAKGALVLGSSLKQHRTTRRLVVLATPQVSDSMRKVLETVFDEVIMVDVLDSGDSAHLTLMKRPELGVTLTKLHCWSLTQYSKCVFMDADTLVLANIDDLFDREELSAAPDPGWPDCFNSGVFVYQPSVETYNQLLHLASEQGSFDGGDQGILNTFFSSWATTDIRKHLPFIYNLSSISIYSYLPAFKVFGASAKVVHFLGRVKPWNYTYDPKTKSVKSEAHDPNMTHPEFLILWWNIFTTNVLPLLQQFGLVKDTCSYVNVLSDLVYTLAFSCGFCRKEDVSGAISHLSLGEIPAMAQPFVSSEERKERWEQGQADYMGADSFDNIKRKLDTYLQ
hGYS2 enzyme (recombinant hGYS2/GN1 protein), sequence (P54840 whole entry): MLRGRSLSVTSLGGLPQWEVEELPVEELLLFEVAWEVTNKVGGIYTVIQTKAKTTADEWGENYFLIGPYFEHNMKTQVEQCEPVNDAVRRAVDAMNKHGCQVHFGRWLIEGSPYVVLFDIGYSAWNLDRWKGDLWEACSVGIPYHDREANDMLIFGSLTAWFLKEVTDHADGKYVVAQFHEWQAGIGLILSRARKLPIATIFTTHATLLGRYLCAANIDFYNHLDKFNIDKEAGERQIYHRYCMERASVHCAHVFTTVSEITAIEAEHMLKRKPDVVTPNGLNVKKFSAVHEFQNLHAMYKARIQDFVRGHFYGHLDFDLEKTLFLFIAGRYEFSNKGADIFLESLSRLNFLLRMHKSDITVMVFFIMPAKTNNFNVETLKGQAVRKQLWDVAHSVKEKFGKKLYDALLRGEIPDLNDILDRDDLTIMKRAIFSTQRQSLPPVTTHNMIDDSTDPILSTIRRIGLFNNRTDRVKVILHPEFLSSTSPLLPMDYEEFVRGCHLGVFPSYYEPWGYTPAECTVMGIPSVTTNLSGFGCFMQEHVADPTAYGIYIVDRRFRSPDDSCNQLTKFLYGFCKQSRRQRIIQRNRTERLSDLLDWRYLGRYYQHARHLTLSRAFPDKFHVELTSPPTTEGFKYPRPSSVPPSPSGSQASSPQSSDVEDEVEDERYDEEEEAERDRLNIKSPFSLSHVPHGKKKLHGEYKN
hGYS2 enzyme (recombinant hGYS2/GN1 protein), sequence (P46976 whole entry partner): as the sequence (P46976 whole entry partner) above

As for `CC(C)c1ccc([C@@H](NC(=O)[C@@H]2C[C@@H](F)CN2C(=O)[C@@H]2CCC(=O)N2C)c2ccccc2)cc1` [Compound 57, (2S,4R)-4-fluoro-1-[(2S)-1-methyl-5-oxopyrrolidine-2-carbonyl]-N-[(S)-phenyl[4-(propan-2-yl)phenyl]methyl]pyrrolidine-2-carboxamide], the pIC50 in assay [1] is 6.64; in assay [2], < 4.00.

Take `CC(=O)N[C@@H](CC(N)=O)C(=O)N1C[C@H](F)C[C@H]1C(=O)N[C@@H](c1ccccc1)c1ccc(C(C)C)cc1` [Compound 208, (2S,4R)-1-[(2S)-3-carbamoyl-2-acetamidopropanoyl]-4-fluoro-N-[(S)-phenyl[4-(propan-2-yl)phenyl]methyl]pyrrolidine-2-carboxamide]: the values for the pIC50 in assay [1] and in assay [2] were 6.95 and < 4.00, respectively.

As for `O=C(N[C@@H](c1ccccc1)c1ccc(C2CC2)c(F)c1)[C@@H]1C[C@@H](F)CN1C(=O)Cc1ccn[nH]1` [Compound 436, (2S,4R)-N-[(S)-(4-cyclopropyl-3-fluorophenyl)(phenyl)methyl]-4-fluoro-1-[2-(1H-pyrazol-5-yl)acetyl]pyrrolidine-2-carboxamide], the pIC50 in assay [1] is 6.76; in assay [2], < 4.00.

For `Cc1cc(C)n(CC(=O)N2C[C@H](F)C[C@H]2C(=O)N[C@@H](c2ccccc2)c2ccc(C(C)C)cc2)n1` [Compound 125, (2S,4R)-1-[2-(3,5-dimethyl-1H-pyrazol-1-yl)acetyl]-4-fluoro-N-[(S)-phenyl[4-(propan-2-yl)phenyl]methyl]pyrrolidine-2-carboxamide], the pIC50 was 7.64 in assay [1] and < 4.00 in assay [2].

As to `CC(C)c1ccc([C@@H](NC(=O)[C@@H]2C[C@@H](F)CN2C(=O)Cc2cccc3ncccc23)c2ccccc2)cc1` [Compound 130, (2S,4R)-4-fluoro-N-[(S)-phenyl[4-(propan-2-yl)phenyl]methyl]-1-[2-(quinolin-5-yl)acetyl]pyrrolidine-2-carboxamide], the pIC50 in assay [1] is 8.15; in assay [2], < 4.00.

Take `CC(C)c1ccc([C@@H](NC(=O)[C@@H]2C[C@@H](F)CN2C(=O)C(C)n2cncn2)c2ccccc2)cc1` (stereo partly drawn) [Compound 34, (2S,4R)-4-fluoro-N-[(S)-phenyl[4-(propan-2-yl)phenyl]methyl]-1-[2-(1H-1,2,4-triazol-1-yl)propanoyl]pyrrolidine-2-carboxamide]: the pIC50 in assay [1] was 7.12; in assay [2], < 4.00.

As to `CC(C)c1ccc([C@@H](NC(=O)[C@@H]2C[C@@H](F)CN2C(=O)Cc2cc(F)ccc2Cl)c2ccccc2)cc1` [Compound 63, (2S,4R)-1-[2-(2-chloro-5-fluorophenyl]acetyl]-4-fluoro-N-[(S)-phenyl[4-(propan-2-yl)phenyl]methyl]pyrrolidine-2-carboxamide], the pIC50 in assay [1] is 7.82; in assay [2], < 4.00.

For the molecule `CC(C)c1ccc([C@@H](NC(=O)[C@@H]2C[C@@H](F)CN2C(=O)Cc2cnccn2)c2ccccc2)cc1` [Compound 26, (2S,4R)-4-fluoro-N-[(S)-phenyl[4-(propan-2-yl)phenyl]methyl]-1-[2-(pyrazin-2-yl)acetyl]pyrrolidine-2-carboxamide], the pIC50 in assay [1] was 7.44; in assay [2] it was < 4.00.

As to `CC(C)c1ccc([C@@H](NC(=O)[C@@H]2C[C@@H](F)CN2C(=O)Cn2ccnn2)c2ccccc2)cc1` (stereo in doubt) [Compound 222, (2RS,4R)-4-fluoro-N-[(S)-phenyl[4-(propan-2-yl)phenyl]methyl]-1-[2-(1H-1,2,3-triazol-1-yl)acetyl]pyrrolidine-2-carboxamide], the pIC50 is 7.40 in assay [1] and < 4.00 in assay [2].

`CC(=O)N1C[C@H]2COC[C@@]2(C(=O)N2C[C@H](F)C[C@H]2C(=O)N[C@@H](c2ccccc2)c2ccc(C(C)C)cc2)C1` [Compound 3, (2S,4R)-1-[(3aS,6aS)-5-acetyl-hexahydro-1H-furo[3,4-c]pyrrole-3a-carbonyl]-4-fluoro-N-[(S)-phenyl[4-(propan-2-yl)phenyl]methyl]pyrrolidine-2-carboxamide]: the pIC50 in assay [1] is 6.77; in assay [2] it was < 4.00.
